From the supplement of paper PMC10307832

Key:
Assay in all cases: relative viability (nuclei count vs DMSO), 5 days (fraction); higher = more cells survive
Elesclomol + Pictilisib = compound: CN(NC(=O)CC(=O)NN(C)C(=S)c1ccccc1)C(=S)c1ccccc1 [Elesclomol] + CS(=O)(=O)N1CCN(Cc2cc3nc(-c4cccc5[nH]ncc45)nc(N4CCOCC4)c3s2)CC1 [Pictilisib] (partner 1 µM)
Method in brief: (§1)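 The day after seeding in 1536-well plates, lung cancer cell lines were treated by pin tool with a single drug, or with a fixed anchor-drug dose together with five library-drug doses (not always all listed) in √10 steps. After 5 days, a combined fix-and-stain solution (final 0.05% Triton X-100, 1% formaldehyde, 1 ug/ml Hoechst) was added. Nuclei counted on 4× images gave relative viability as treated counts over vehicle counts, reported as the median of duplicate plates.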

Elesclomol + Luminespib = compound: CN(NC(=O)CC(=O)NN(C)C(=S)c1ccccc1)C(=S)c1ccccc1 [Elesclomol] + CCNC(=O)c1noc(-c2cc(C(C)C)c(O)cc2O)c1-c1ccc(CN2CCOCC2)cc1 [Luminespib] (partner 0.01 µM)
Method in brief: as §1

Elesclomol + Lapatinib = compound: CN(NC(=O)CC(=O)NN(C)C(=S)c1ccccc1)C(=S)c1ccccc1 [Elesclomol] + CS(=O)(=O)CCNCc1ccc(-c2ccc3ncnc(Nc4ccc(OCc5cccc(F)c5)c(Cl)c4)c3c2)o1 [Lapatinib] (partner 2 µM)
Method in brief: as §1

Elesclomol + Trametinib = compound: CN(NC(=O)CC(=O)NN(C)C(=S)c1ccccc1)C(=S)c1ccccc1 [Elesclomol] + CC(=O)Nc1cccc(-n2c(=O)n(C3CC3)c(=O)c3c(Nc4ccc(I)cc4F)n(C)c(=O)c(C)c32)c1 [Trametinib] (partner 0.02 µM)
Method in brief: as §1

Elesclomol + Palbociclib = compound: CN(NC(=O)CC(=O)NN(C)C(=S)c1ccccc1)C(=S)c1ccccc1 [Elesclomol] + CC(=O)c1c(C)c2cnc(Nc3ccc(N4CCNCC4)cn3)nc2n(C2CCCC2)c1=O [Palbociclib] (partner 0.5 µM)
Method in brief: as §1

Cell Line | relative viability (Elesclomol + Pictilisib; first compound 0.003162 µM) | relative viability (Elesclomol + Pictilisib; first compound 0.01 µM) | relative viability (Elesclomol + Pictilisib; first compound 0.03162 µM) | relative viability (Elesclomol + Pictilisib; first compound 0.1 µM) | relative viability (Elesclomol + Luminespib; first compound 0.003162 µM) | relative viability (Elesclomol + Luminespib; first compound 0.01 µM) | relative viability (Elesclomol + Luminespib; first compound 0.03162 µM) | relative viability (Elesclomol + Luminespib; first compound 0.1 µM) | relative viability (Elesclomol + Lapatinib; first compound 0.003162 µM) | relative viability (Elesclomol + Lapatinib; first compound 0.01 µM) | relative viability (Elesclomol + Lapatinib; first compound 0.03162 µM) | relative viability (Elesclomol + Lapatinib; first compound 0.1 µM) | relative viability (Elesclomol + Trametinib; first compound 0.003162 µM) | relative viability (Elesclomol + Trametinib; first compound 0.01 µM) | relative viability (Elesclomol + Trametinib; first compound 0.03162 µM) | relative viability (Elesclomol + Trametinib; first compound 0.1 µM) | relative viability (Elesclomol + Palbociclib; first compound 0.003162 µM) | relative viability (Elesclomol + Palbociclib; first compound 0.01 µM) | relative viability (Elesclomol + Palbociclib; first compound 0.03162 µM) | relative viability (Elesclomol + Palbociclib; first compound 0.1 µM)
NCI-H460 | 0.361 | 0.291 | 0.309 | 0.259 | 0.0311 | 0.0324 | 0.0198 | 0.0215 | 0.755 | 0.229 | 0.0103 | 0.0101 | 0.117 | 0.203 | 0.0139 | 0.0132 | 0.185 | 0.138 | 0.0179 | 0.0102
NCI-H520 | 0.255 | 0.279 | 0.22 | 0.132 | 0.238 | 0.188 | 0.193 | 0.164 | 0.91 | 0.666 | 0.373 | 0.0913 | 0.789 | 0.65 | 0.301 | 0.137 | 0.254 | 0.213 | 0.183 | 0.0937
NCI-H647 | 0.492 | 0.168 | 0.204 | 0.0838 | 0.113 | 0.0912 | 0.0748 | 0.0628 | 1.08 | 0.765 | 0.267 | 0.0231 | 0.553 | 0.347 | 0.235 | 0.148 | 0.309 | 0.257 | 0.128 | 0.0311
NCI-H650 | 0.875 | 0.361 | 0.276 | 0.256 | 0.791 | 0.401 | 0.196 | 0.18 | 0.805 | 0.373 | 0.195 | 0.289 | 1.02 | 0.709 | 0.265 | 0.191 | 0.328 | 0.292 | 0.174 | 0.133
NCI-H661 | 0.356 | 0.373 | 0.214 | 0.212 | 0.845 | 0.326 | 0.282 | 0.214 | 0.368 | 0.205 | 0.236 | 0.186 | 0.565 | 0.404 | 0.314 | 0.244 | 0.408 | 0.337 | 0.235 | 0.181
NCI-H727 | 0.331 | 0.226 | 0.158 | 0.0437 | 0.388 | 0.478 | 0.22 | 0.123 | 0.591 | 0.365 | 0.165 | 0.0475 | 0.412 | 0.362 | 0.394 | 0.376 | 0.633 | 0.494 | 0.676 | 0.497
NCI-H838 | 0.465 | 0.413 | 0.439 | 0.357 | 0.33 | 0.235 | 0.166 | 0.109 | 0.984 | 0.838 | 0.683 | 0.555 | 0.56 | 0.494 | 0.518 | 0.216 | 0.229 | 0.189 | 0.247 | 0.143
NCI-H1355 | 0.549 | 0.191 | 0.257 | 0.178 | 0.713 | 0.623 | 0.413 | 0.171 | 1.05 | 0.786 | 0.657 | 0.222 | 0.434 | 0.408 | 0.356 | 0.159 | 0.429 | 0.344 | 0.3 | 0.171
NCI-H1395 | 0.65 | 0.324 | 0.292 | 0.436 | 0.57 | 0.498 | 0.308 | 0.292 | 1.01 | 0.368 | 0.289 | 0.304 | 1.01 | 0.626 | 0.294 | 0.215 | 0.659 | 0.36 | 0.309 | 0.219
NCI-H1437 | 0.391 | 0.321 | 0.198 | 0.137 | 0.967 | 0.689 | 0.445 | 0.436 | 0.637 | 0.45 | 0.346 | 0.265 | 0.504 | 0.424 | 0.339 | 0.275 | 0.3 | 0.247 | 0.257 | 0.208
NCI-H1650 | 0.185 | 0.177 | 0.18 | 0.15 | 0.156 | 0.206 | 0.201 | 0.148 | 0.38 | 0.277 | 0.184 | 0.17 | 0.202 | 0.188 | 0.116 | 0.102 | 0.234 | 0.155 | 0.104 | 0.0955
NCI-H1651 | 0.454 | 0.323 | 0.177 | 0.0888 | 0.944 | 0.361 | 0.157 | 0.0878 | 0.715 | 0.415 | 0.112 | 0.0857 | 0.854 | 0.842 | 0.858 | 0.538 | 0.509 | 0.516 | 0.532 | 0.341
NCI-H1666 | 0.359 | 0.267 | 0.243 | 0.195 | 0.962 | 0.788 | 0.521 | 0.484 | 0.556 | 0.326 | 0.229 | 0.153 | 0.801 | 0.675 | 0.689 | 0.662 | 0.682 | 0.563 | 0.575 | 0.583
NCI-H1734 | 0.511 | 0.328 | 0.248 | 0.117 | 0.189 | 0.14 | 0.122 | 0.108 | 1.11 | 0.893 | 0.294 | 0.125 | 0.674 | 0.511 | 0.151 | 0.0873 | 0.334 | 0.326 | 0.132 | 0.105
NCI-H1755 | 0.481 | 0.225 | 0.409 | 0.202 | 0.418 | 0.257 | 0.452 | 0.284 | 1.05 | 0.939 | 0.887 | 0.236 | 0.772 | 0.77 | 0.774 | 0.56 | 0.483 | 0.429 | 0.462 | 0.393
